Reference: PubChem BioAssay (NCI)
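A five-concentration, 48-hour dose response in 96-well plates underlies each endpoint, interpolated linearly between surrounding concentrations. TGI denotes the concentration required for complete inhibition of growth.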

Tests used:
Test in all cases: NCI anticancer screen, dose series, 48 h
MDA-MB-231 breast = system: MDA-MB-231 breast
NCI-H522 lung = system: NCI-H522 lung
CAKI-1 renal = system: CAKI-1 renal
M14 melanoma = system: M14 melanoma
OVCAR-5 ovarian = system: OVCAR-5 ovarian
MOLT-4 leukemia = system: MOLT-4 leukemia
SNB-75 CNS = system: SNB-75 CNS
SN12C renal = system: SN12C renal
UO-31 renal = system: UO-31 renal
SF-268 CNS = system: SF-268 CNS
COLO 205 colon = system: COLO 205 colon
HOP-92 NSCLC = system: HOP-92 NSCLC
HCT-15 colon = system: HCT-15 colon
SF-539 CNS = system: SF-539 CNS
SW-620 colon = system: SW-620 colon
HS 578T breast = system: HS 578T breast
DU-145 prostate = system: DU-145 prostate
TK-10 renal = system: TK-10 renal
NCI-H23 lung = system: NCI-H23 lung
BT-549 breast = system: BT-549 breast
UACC-257 melanoma = system: UACC-257 melanoma
OVCAR-3 ovarian = system: OVCAR-3 ovarian
OVCAR-4 ovarian = system: OVCAR-4 ovarian
MDA-N = system: MDA-N
KM12 colon = system: KM12 colon
SK-MEL-2 melanoma = system: SK-MEL-2 melanoma
NCI/ADR-RES ovarian = system: NCI/ADR-RES ovarian
T-47D breast = system: T-47D breast
SK-MEL-5 melanoma = system: SK-MEL-5 melanoma
786-0 renal = system: 786-0 renal
LOX IMVI melanoma = system: LOX IMVI melanoma
SF-295 CNS = system: SF-295 CNS
HL-60(TB) leukemia = system: HL-60(TB) leukemia
HOP-62 NSCLC = system: HOP-62 NSCLC
HCC-2998 colon = system: HCC-2998 colon
EKVX NSCLC = system: EKVX NSCLC
MCF7 breast = system: MCF7 breast
NCI-H226 lung = system: NCI-H226 lung
SR leukemia = system: SR leukemia
UACC-62 melanoma = system: UACC-62 melanoma
RXF 393 renal = system: RXF 393 renal
SK-OV-3 ovarian = system: SK-OV-3 ovarian
SNB-19 CNS = system: SNB-19 CNS
RPMI-8226 leukemia = system: RPMI-8226 leukemia
OVCAR-8 ovarian = system: OVCAR-8 ovarian
HCT-116 colon = system: HCT-116 colon
CCRF-CEM leukemia = system: CCRF-CEM leukemia
IGROV1 ovarian = system: IGROV1 ovarian
ACHN renal = system: ACHN renal
A498 renal = system: A498 renal
HT29 colon = system: HT29 colon
MALME-3M melanoma = system: MALME-3M melanoma
MDA-MB-435 = system: MDA-MB-435
A549 NSCLC = system: A549 NSCLC
U251 CNS = system: U251 CNS
K-562 leukemia = system: K-562 leukemia
NCI-H460 lung = system: NCI-H460 lung
SK-MEL-28 melanoma = system: SK-MEL-28 melanoma
PC-3 prostate = system: PC-3 prostate

COc1ccc(C2=C(Cl)c3cc(OC)c(OC)cc3C2=O)cc1OC
TGI (MDA-MB-231 breast): 36.5 µM
TGI (NCI-H522 lung): 27 µM
TGI (CAKI-1 renal): 4.24 µM
TGI (M14 melanoma): 18.1 µM
TGI (OVCAR-5 ovarian): 33.9 µM
TGI (MOLT-4 leukemia): > 100 µM
TGI (SNB-75 CNS): > 100 µM
TGI (SN12C renal): 32.9 µM
TGI (UO-31 renal): 30.2 µM
TGI (SF-268 CNS): 35.9 µM
TGI (COLO 205 colon): 16.2 µM
TGI (HOP-92 NSCLC): 4 µM
TGI (HCT-15 colon): 20.7 µM
TGI (SF-539 CNS): 35.9 µM
TGI (SW-620 colon): 31.3 µM
TGI (HS 578T breast): 87.4 µM
TGI (DU-145 prostate): 32.7 µM
TGI (TK-10 renal): 25.6 µM
TGI (NCI-H23 lung): 26.7 µM
TGI (BT-549 breast): 29.5 µM
TGI (UACC-257 melanoma): 15.5 µM
TGI (OVCAR-3 ovarian): 6.56 µM
TGI (OVCAR-4 ovarian): 25.5 µM
TGI (MDA-N): 38.3 µM
TGI (KM12 colon): 32.2 µM
TGI (SK-MEL-2 melanoma): 28 µM
TGI (NCI/ADR-RES ovarian): 51.5 µM
TGI (T-47D breast): 10.9 µM
TGI (SK-MEL-5 melanoma): 31.7 µM
TGI (786-0 renal): 10.7 µM
TGI (LOX IMVI melanoma): 24.7 µM
TGI (SF-295 CNS): > 100 µM
TGI (HL-60(TB) leukemia): > 100 µM
TGI (HOP-62 NSCLC): 30.4 µM
TGI (HCC-2998 colon): 38.9 µM
TGI (EKVX NSCLC): 37.9 µM
TGI (MCF7 breast): 27.9 µM
TGI (NCI-H226 lung): > 100 µM
TGI (SR leukemia): > 100 µM
TGI (UACC-62 melanoma): 29.6 µM
TGI (RXF 393 renal): 18 µM
TGI (SK-OV-3 ovarian): 36.9 µM
TGI (SNB-19 CNS): > 100 µM
TGI (RPMI-8226 leukemia): 87.1 µM
TGI (OVCAR-8 ovarian): 31.9 µM
TGI (HCT-116 colon): 15.2 µM
TGI (CCRF-CEM leukemia): > 100 µM
TGI (IGROV1 ovarian): 32.1 µM
TGI (ACHN renal): 17.2 µM
TGI (A498 renal): 32 µM
TGI (HT29 colon): > 100 µM
TGI (MALME-3M melanoma): 26 µM
TGI (MDA-MB-435): 29.4 µM
TGI (A549 NSCLC): > 100 µM

CN(C)/C(N)=N/C(N)=Nc1cccc(Cl)c1
TGI (MDA-MB-231 breast): > 100 µM
TGI (CAKI-1 renal): > 100 µM
TGI (M14 melanoma): > 100 µM
TGI (OVCAR-5 ovarian): > 100 µM
TGI (MOLT-4 leukemia): > 100 µM
TGI (U251 CNS): > 100 µM
TGI (SNB-75 CNS): > 100 µM
TGI (SN12C renal): > 100 µM
TGI (UO-31 renal): > 100 µM
TGI (SF-268 CNS): > 100 µM
TGI (COLO 205 colon): 49.8 µM
TGI (K-562 leukemia): > 100 µM
TGI (HCT-15 colon): > 100 µM
TGI (SF-539 CNS): > 100 µM
TGI (SW-620 colon): > 100 µM
TGI (HS 578T breast): > 100 µM
TGI (TK-10 renal): > 100 µM
TGI (NCI-H23 lung): > 100 µM
TGI (BT-549 breast): 92.5 µM
TGI (UACC-257 melanoma): > 100 µM
TGI (OVCAR-3 ovarian): > 100 µM
TGI (OVCAR-4 ovarian): > 100 µM
TGI (MDA-N): > 100 µM
TGI (KM12 colon): > 100 µM
TGI (SK-MEL-2 melanoma): > 100 µM
TGI (NCI/ADR-RES ovarian): > 100 µM
TGI (NCI-H460 lung): > 100 µM
TGI (T-47D breast): 77.2 µM
TGI (SK-MEL-5 melanoma): 74.6 µM
TGI (786-0 renal): > 100 µM
TGI (SK-MEL-28 melanoma): > 100 µM
TGI (LOX IMVI melanoma): > 100 µM
TGI (SF-295 CNS): > 100 µM
TGI (PC-3 prostate): > 100 µM
TGI (HOP-62 NSCLC): > 100 µM
TGI (HCC-2998 colon): > 100 µM
TGI (EKVX NSCLC): > 100 µM
TGI (MCF7 breast): > 100 µM
TGI (NCI-H226 lung): 79.3 µM
TGI (SR leukemia): > 100 µM
TGI (UACC-62 melanoma): > 100 µM
TGI (SK-OV-3 ovarian): > 100 µM
TGI (SNB-19 CNS): > 100 µM
TGI (RPMI-8226 leukemia): > 100 µM
TGI (OVCAR-8 ovarian): > 100 µM
TGI (HCT-116 colon): > 100 µM
TGI (IGROV1 ovarian): 77.9 µM
TGI (ACHN renal): > 100 µM
TGI (HT29 colon): > 100 µM
TGI (MALME-3M melanoma): > 100 µM
TGI (MDA-MB-435): > 100 µM
TGI (A549 NSCLC): > 100 µM
